The values that follow come from ChEMBL document CHEMBL4825686, “HTS-based discovery and optimization of novel positive allosteric modulators of the α7 nicotinic acetylcholine receptor” (Eur J Med Chem, 2021).

The structures appear in SMILES notation.

In the first experiment the target is T1, Neuronal acetylcholine receptor subunit alpha-7 (Homo sapiens, UniProt P36544). The experiment is described as follows: Positive allosteric modulator activity at human alpha7 nAChR expressed in Flp-In-HEK293 cells co-expressing RIC-3 assessed as potentiation of PNU282987-induced calcium influx at 1 uM measured after 10 mins by FLIPR assay. The format is cell-based. As to conditions: Flp-In-293.
T1 sequence (P36544 whole entry): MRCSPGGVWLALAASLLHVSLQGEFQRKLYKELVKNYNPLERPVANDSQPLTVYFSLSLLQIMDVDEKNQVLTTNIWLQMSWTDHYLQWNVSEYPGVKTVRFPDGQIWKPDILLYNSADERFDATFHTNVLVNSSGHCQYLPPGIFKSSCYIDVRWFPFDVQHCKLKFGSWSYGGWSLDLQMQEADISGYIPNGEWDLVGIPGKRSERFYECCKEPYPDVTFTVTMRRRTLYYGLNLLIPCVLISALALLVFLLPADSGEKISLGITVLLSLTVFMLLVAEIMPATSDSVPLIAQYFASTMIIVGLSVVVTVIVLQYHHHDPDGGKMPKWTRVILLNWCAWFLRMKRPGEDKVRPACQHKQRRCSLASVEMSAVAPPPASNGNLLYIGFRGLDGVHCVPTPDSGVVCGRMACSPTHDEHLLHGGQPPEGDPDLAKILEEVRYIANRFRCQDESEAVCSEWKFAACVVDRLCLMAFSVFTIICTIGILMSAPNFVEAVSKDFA
Take `Cc1ccc(OC2CCCN(C(=O)C(=O)Nc3ccc4c(ccn4C)c3)CC2)cc1` (configuration not stated): the Activity came out at 13%.

Consider `Cc1ccc(O[C@H]2CC[C@@H](C(=O)NCc3ccc4c(ccn4C)c3)CC2)cc1`, for which the Activity came out at 16%.

Another experiment addresses T1, Neuronal acetylcholine receptor subunit alpha-7. Nature of the experiment: Positive allosteric modulator activity at human alpha7 nAChR expressed in Flp-In-HEK293 cells co-expressing RIC-3 assessed as potentiation of PNU282987-induced calcium influx at 10 uM measured after 10 mins by FLIPR assay. To be noted: Flp-In-293. The format is cell-based.
Regarding `Cc1ccc(CN2CCC(C(=O)NCc3ccc4c(ccn4C)c3)CC2)cc1`, the Activity worked out at 12%.

As to `Cc1ccc(OC2CCN(C(=O)C(=O)Nc3ccc4c(ccn4C)c3)C2)cc1` (configuration not stated), the Activity is 25%.

Take `Cc1ccc(CC2CCN(C(=O)NC(=O)c3ccc4c(ccn4C)c3)CC2)cc1`: the Activity stood at 37%.

Take `Cc1ccc(CN2CCN(C(=O)C(=O)Cc3ccc4c(ccn4C)c3)CC2)cc1`: the Activity amounted to 7%.

The experiment is the same for the next values; noted with them: Flp-In-293, filed as positive allosteric modulator.
`Cc1ccc(OC2CN(C(=O)C(=O)Nc3ccc4c(ccn4C)c3)C2)cc1`: the Activity worked out at 47%.
